According to paper PMC6146285 (Journal of pharmacological and toxicological methods, 2018):
Read-outs that look alike come from different tables or passages of the source.

Tests used:
Format in all cases: cell-based, human
hiPSC-CMs = conditions: for Arrhythmia incidence by dose level: all sites and cell types tested; for FPDmax compared to pre-addition values: 30 min post compound addition, low risk compounds; for Arrhythmia: one site; for Inotropic effect (impedance signal): hiPSC-CMs; for Average % change in EFP amplitude / FPDmax: with increasing concentrations; for FPD prolongation: cell types other than CLS
[1] = test system: CDI (iCell Cardiomyocytes^2, Cellular Dynamics International) hiPSC-CMs
[2] = test system: PLR (Pluricyte Cardiomyocytes, Ncardia) hiPSC-CMs
[3] = test system: AXG (Cor.4U, Ncardia) hiPSC-CMs
[4] = test system: CLS (Cellartis Cardiomyocytes, Takara Bio Clontech) hiPSC-CMs
[5] = all sites and cell types, dose levels of Table 3

COc1ccc(CCN2CCC(Nc3nc4ccccc4n3Cc3ccc(F)cc3)CC2)cc1 [Astemizole]
Arrhythmia incidence by dose level (hiPSC-CMs; dose levels of Table 3): arrhythmia in most cases at dose 3, and almost all cases at dose 4

CN(C)CCCN1c2ccccc2Sc2ccc(Cl)cc21 [Chlorpromazine]
Arrhythmic events (hiPSC-CMs; independent of the cell type or site): did not induce arrhythmic events

COc1cc(N)c(Cl)cc1C(=O)NC1CCN(CCCOc2ccc(F)cc2)CC1OC (stereo not drawn) [Cisapride]
Arrhythmia incidence by dose level (hiPSC-CMs; dose levels of Table 3): arrhythmia in most cases at dose 3, and almost all cases at dose 4

CC[C@H]1OC(=O)[C@H](C)[C@@H](O[C@H]2C[C@@](C)(OC)[C@@H](O)[C@H](C)O2)[C@H](C)[C@@H](O[C@@H]2O[C@H](C)C[C@H](N(C)C)[C@H]2O)[C@](C)(OC)C[C@@H](C)C(=O)[C@H](C)[C@@H](O)[C@]1(C)O [Clarithromycin]
Arrhythmia incidence by dose level (hiPSC-CMs; dose levels of Table 3): arrhythmia in most cases at dose 3, and almost all cases at dose 4

CC(C)NCC(O)c1ccc(NS(C)(=O)=O)cc1 (stereo not drawn) [D,l Sotalol]
Arrhythmia detection starting at (dose level) (hiPSC-CMs; [5]): dose 3 | Arrhythmic events ([1]; CDI, 10 μM): EAD-like events and ectopic beats | BRCoV ([1]; CDI, post addition of 10 μM): large increase | Beat rate ([1]; CDI, post addition of 10 μM): decrease | Impedance amplitude ([1]; CDI, post addition of 10 μM): remains unchanged

COc1ccc([C@@H]2Sc3ccccc3N(CCN(C)C)C(=O)[C@@H]2OC(C)=O)cc1 [Diltiazem]
FPDmax compared to pre-addition values (hiPSC-CMs): decrease

CC(C)N(CCC(C(N)=O)(c1ccccc1)c1ccccn1)C(C)C (stereo not drawn) [Disopyramide]
Arrhythmia (hiPSC-CMs; 10 and 100 μM): Arrhythmia was detected | Arrhythmia detection starting at (dose level) (hiPSC-CMs; [5]): dose 3 | Inotropic effect (impedance signal) (hiPSC-CMs): negative inotropic effect | Average % change in impedance amplitude (hiPSC-CMs; with increasing concentration, all cell types at one site): decreased | Average % change in EFP amplitude (hiPSC-CMs; all cell types at one site): decreased | FPDmax (hiPSC-CMs; all cell types at one site): increased

O=c1[nH]c2ccccc2n1CCCN1CCC(n2c(=O)[nH]c3cc(Cl)ccc32)CC1 [Domperidone]
Arrhythmia (hiPSC-CMs; 0.3, 3 μM): arrhythmia is marked | Arrhythmia incidence by dose level (hiPSC-CMs; dose levels of Table 3): arrhythmia in most cases at dose 3, and almost all cases at dose 4 | Inotropic effect (impedance signal) (hiPSC-CMs): negative inotropic effect | Average % change in EFP amplitude (hiPSC-CMs; all cell types at one site): decreased | FPDmax (hiPSC-CMs; all cell types at one site): increased

O=C(CCCN1CC=C(n2c(=O)[nH]c3ccccc32)CC1)c1ccc(F)cc1 [Droperidol]
Arrhythmia incidence by dose level (hiPSC-CMs; dose levels of Table 3): arrhythmia in most cases at dose 3, and almost all cases at dose 4 | Arrhythmic events ([2]; 0.3 μM): rolling EAD-like events | FPDmax ([2]; 0.3 μM): increase | Beat rate ([2]; post addition of 0.3 μM): decrease | Beat rate coefficient of variation ([2]; post addition of 0.3 μM): increase | Impedance amplitude ([2]; post addition of 0.3 μM): remains unchanged

CCOC(=O)N1CCC(=C2c3ccc(Cl)cc3CCc3cccnc32)CC1 [Loratadine]
FPDmax compared to pre-addition values (hiPSC-CMs): not a significant change

COC(=O)C1=C(C)NC(C)=C(C(=O)OC)C1c1ccccc1[N+](=O)[O-] [Nifedipine]
Chronic effect on cell viability (base impedance) ([3]; AXG, recorded over 24 h): time and concentration-dependent reduction of cell viability | FPDmax compared to pre-addition values (hiPSC-CMs): decrease | Inotropic effect (impedance signal) (hiPSC-CMs): negative inotropic effect

CCOC(=O)C1=C(C)NC(C)=C(C(=O)OC)C1c1cccc([N+](=O)[O-])c1 (stereo not drawn) [Nitrendipine]
FPDmax compared to pre-addition values (hiPSC-CMs): decrease

Cc1nccn1CC1CCc2c(c3ccccc3n2C)C1=O (stereo not drawn) [Ondansetron]
Arrhythmia incidence by dose level (hiPSC-CMs; dose levels of Table 3): arrhythmia in most cases at dose 3, and almost all cases at dose 4

O=c1[nH]c2ccccc2n1C1CCN(CCCC(c2ccc(F)cc2)c2ccc(F)cc2)CC1 [Pimozide]
Arrhythmogenicity ([3]; site 4, AXG cells): not arrhythmogenic | Arrhythmia incidence by dose level (hiPSC-CMs; dose levels of Table 3): arrhythmia in most cases at dose 3, and almost all cases at dose 4

C=C[C@H]1C[N@@]2CC[C@H]1C[C@@H]2[C@@H](O)c1ccnc2ccc(OC)cc12 [Quinidine]
Arrhythmia detection starting at (dose level) (hiPSC-CMs; [5]): dose 2 | Incidence of FPDmax>10% or > 30% started at (dose level) (hiPSC-CMs; [5]): dose 1

Cc1nc2n(c(=O)c1CCN1CCC(c3noc4cc(F)ccc34)CC1)CCCC2 [Risperidone]
Change in the FPD ([3]; AXG cells): no significant change | Change in the FPD ([4]; CLS cells): no significant change | Change in the FPD ([1]; CDI cells): > 10%

CC/C(=C(\c1ccccc1)c1ccc(OCCN(C)C)cc1)c1ccccc1 [Tamoxifen]
Decrease of average % change in EFP amplitude ([1]; CDI, 3 μM, one site): ~ 40% | Decrease of average % change in FPDmax ([1]; CDI, 3 μM, one site): ~ 40% | Increase in beat rate ([1]; CDI, 3 μM, one site): ~ 40% | Changes in average impedance signals ([1]; CDI, 0.3, 0.9 and 3 μM): No significant changes

CC(C)(C)c1ccc(C(O)CCCN2CCC(C(O)(c3ccccc3)c3ccccc3)CC2)cc1 (stereo not drawn) [Terfenadine]
Number of experiments with quiescence (hiPSC-CMs; other experiments): 4 | Number of experiments with arrhythmia (hiPSC-CMs; site 4, AXG and site 4, CLS): 2

COc1cc2c(Nc3ccc(Br)cc3F)ncnc2cc1OCC1CCN(C)CC1 [Vandetanib]
Arrhythmia detection starting at (dose level) (hiPSC-CMs; [5]): dose 3

CN(CCOc1ccc(NS(C)(=O)=O)cc1)CCc1ccc(NS(C)(=O)=O)cc1 [dofetilide]
FPD prolongation upon application ([4]; CLS hiPSC-CMs, 0.5-10 nM): did not exhibit an expected FPD prolongation | FPD prolongation (hiPSC-CMs; 0.5 nM): approx. 10% | FPD prolongation (hiPSC-CMs; 10 nM, arrhythmia present): ~100% | Effect on FPD and arrhythmia (hiPSC-CMs; wells treated with 5 nM and 10 nM): prolongation of FPD and arrhythmia
